One test relates to Streptococcus pneumoniae. The test can be described thus: Minimum inhibitory concentration against penicillin susceptible Streptococcus pneumoniae AP671401. The test is classed as functional.
A short description of test [1]: Minimum inhibitory concentration against Haemophilus influenzae ATCC 51907. The test is classed as functional.
The target of test [2] is T1, Amine oxidase [flavin-containing] A (Homo sapiens, UniProt P21397).
T1 sequence (P21397 whole entry): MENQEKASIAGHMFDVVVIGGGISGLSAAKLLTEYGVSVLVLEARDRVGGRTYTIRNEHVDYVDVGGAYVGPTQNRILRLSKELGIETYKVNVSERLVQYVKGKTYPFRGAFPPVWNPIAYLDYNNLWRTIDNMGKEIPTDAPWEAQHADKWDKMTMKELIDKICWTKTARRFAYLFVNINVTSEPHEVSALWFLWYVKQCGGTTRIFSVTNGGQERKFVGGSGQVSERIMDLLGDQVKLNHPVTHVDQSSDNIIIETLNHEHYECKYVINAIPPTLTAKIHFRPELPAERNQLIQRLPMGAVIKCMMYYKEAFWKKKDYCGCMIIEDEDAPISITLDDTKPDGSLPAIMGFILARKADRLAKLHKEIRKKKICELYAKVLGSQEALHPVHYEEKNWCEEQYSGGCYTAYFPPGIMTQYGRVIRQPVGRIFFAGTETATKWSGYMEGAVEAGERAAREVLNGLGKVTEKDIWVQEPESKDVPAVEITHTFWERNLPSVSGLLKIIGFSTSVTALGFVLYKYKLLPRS
The test can be described thus: Binding affinity for human liver monoamine oxidase A.

The subject of another test is Staphylococcus aureus. The test can be described thus: Minimum inhibitory concentration against methicillin susceptible Staphylococcus aureus AP601055. The format is functional.

Values after ≈ are worked out from the molar mass of the structure shown.

As to `CCc1cn(C[C@H]2CN(c3ccc(C4=CCS(=O)(=O)CC4)c(F)c3)C(=O)O2)nn1`, the MIC against Streptococcus pneumoniae came out at 2 µg/mL (≈ 4.76 µM); in test [1], 8 µg/mL (≈ 19 µM); in the test with Staphylococcus aureus, 4 µg/mL (≈ 9.51 µM). In test [2], the inhibition constant (Ki) was > 200 µM.

As to `O=C1O[C@@H](Cn2cc(C=C(Br)Br)nn2)CN1c1ccc(C2=CCS(=O)(=O)CC2)c(F)c1`, the MIC was 4 µg/mL (≈ 6.94 µM) against Streptococcus pneumoniae, > 64 µg/mL in test [1] and > 64 µg/mL in the test with Staphylococcus aureus. Besides, the Ki in test [2] is > 100 µM.

On to `C#Cc1cn(C[C@H]2CN(c3ccc(C4=CCS(=O)(=O)CC4)c(F)c3)C(=O)O2)nn1`, for which the MIC against Streptococcus pneumoniae was determined as 0.5 µg/mL (≈ 1.2 µM); in test [1], 2 µg/mL (≈ 4.8 µM); against Staphylococcus aureus it was 2 µg/mL (≈ 4.8 µM). Also, the inhibition constant (Ki) in test [2] was > 200 µM.

`O=C1O[C@@H](Cn2cc(F)nn2)CN1c1ccc(C2=CCS(=O)(=O)CC2)c(F)c1`: the MIC worked out at 0.25 µg/mL (≈ 0.609 µM) in the test on Streptococcus pneumoniae, 2 µg/mL (≈ 4.87 µM) in test [1] and 1 µg/mL (≈ 2.44 µM) with Staphylococcus aureus. Also, affinity in test [2] was put at a Ki of 0.5 µM.

Take `O=C1O[C@@H](Cn2cc(Br)nn2)CN1c1ccc(C2=CCS(=O)(=O)CC2)c(F)c1`: the figures for the MIC (in the test with Streptococcus pneumoniae; in test [1]; with Staphylococcus aureus) were 0.5 µg/mL (≈ 1.06 µM), 2 µg/mL (≈ 4.24 µM) and 2 µg/mL (≈ 4.24 µM), respectively. In test [2], this compound displayed an inhibition constant Ki of 16 µM.

On to `O=Cc1cn(C[C@H]2CN(c3ccc(C4=CCS(=O)(=O)CC4)c(F)c3)C(=O)O2)nn1`, for which the figures for the MIC (with Streptococcus pneumoniae; in test [1]; with Staphylococcus aureus) were 2 µg/mL (≈ 4.76 µM), 16 µg/mL (≈ 38.1 µM) and 16 µg/mL (≈ 38.1 µM), respectively. Besides, the affinity in test [2] corresponds to a Ki of 3.2 µM.

`Cc1cn(C[C@H]2CN(c3ccc(C4=CCS(=O)(=O)CC4)c(F)c3)C(=O)O2)nn1`: the figures for the MIC (in the test with Streptococcus pneumoniae; in test [1]; against Staphylococcus aureus) were 0.5 µg/mL (≈ 1.23 µM), 2 µg/mL (≈ 4.92 µM) and 1 µg/mL (≈ 2.46 µM), respectively. The compound further registered a Ki in test [2] of 25 µM.

With `O=C1O[C@@H](Cn2cc(Cl)nn2)CN1c1ccc(C2=CCS(=O)(=O)CC2)c(F)c1`, the MIC in the test on Streptococcus pneumoniae worked out at 0.25 µg/mL (≈ 0.586 µM); in test [1] it was 1 µg/mL (≈ 2.34 µM); against Staphylococcus aureus it was 1 µg/mL (≈ 2.34 µM). Also, affinity in test [2] was put at a Ki of 3 µM.

Turning to `O=C1O[C@@H](Cn2nncc2F)CN1c1ccc(C2=CCS(=O)(=O)CC2)c(F)c1`, the MIC in the test with Streptococcus pneumoniae was found to be 8 µg/mL (≈ 19.5 µM); in test [1], 64 µg/mL (≈ 156 µM); with Staphylococcus aureus, 32 µg/mL (≈ 78 µM). This compound had an inhibitory constant (Ki) in test [2] of 1.6 µM.

As for `CC(=O)NC[C@H]1CN(c2ccc(C3=CCS(=O)(=O)CC3)c(F)c2)C(=O)O1`, the MIC against Streptococcus pneumoniae worked out at 0.25 µg/mL (≈ 0.654 µM); in test [1], 1 µg/mL (≈ 2.61 µM); against Staphylococcus aureus it was 1 µg/mL (≈ 2.61 µM). The compound also yielded a Ki in test [2] of 5.9 µM.

Take `O=C1O[C@@H](Cn2cc(/C=C/Br)nn2)CN1c1ccc(C2=CCS(=O)(=O)CC2)c(F)c1`: the MIC with Streptococcus pneumoniae was 2 µg/mL (≈ 4.02 µM); in test [1], 8 µg/mL (≈ 16.1 µM); in the test on Staphylococcus aureus, 8 µg/mL (≈ 16.1 µM). Besides, in test [2], the Ki was > 200 µM.

On to `O=C1O[C@@H](Cn2ccnn2)CN1c1ccc(C2=CCS(=O)(=O)CC2)c(F)c1`, for which the MIC stood at 0.5 µg/mL (≈ 1.27 µM) with Streptococcus pneumoniae, 2 µg/mL (≈ 5.1 µM) in test [1] and 1 µg/mL (≈ 2.55 µM) against Staphylococcus aureus. The affinity in test [2] corresponds to a Ki of 3.4 µM.

As for `O=C1O[C@@H](Cn2cc(COP(=O)(Oc3ccccc3)Oc3ccccc3)nn2)CN1c1ccc(C2=CCS(=O)(=O)CC2)c(F)c1`, the values for the MIC (with Streptococcus pneumoniae; in test [1]; in the test on Staphylococcus aureus) were 4 µg/mL (≈ 6.11 µM), 64 µg/mL (≈ 97.8 µM) and 32 µg/mL (≈ 48.9 µM), respectively. Also, in test [2], the inhibition constant (Ki) was > 100 µM.

For the compound `N#CCc1cn(C[C@H]2CN(c3ccc(C4=CCS(=O)(=O)CC4)c(F)c3)C(=O)O2)nn1`, the MIC was determined as 1 µg/mL (≈ 2.32 µM) against Streptococcus pneumoniae, 2 µg/mL (≈ 4.64 µM) in test [1] and 16 µg/mL (≈ 37.1 µM) with Staphylococcus aureus. The inhibitory constant (Ki) in test [2] was > 200 µM.

As to `CC(C)(C)OC(=O)c1cn(C[C@H]2CN(c3ccc(C4=CCS(=O)(=O)CC4)c(F)c3)C(=O)O2)nn1`, the MIC (in the test on Streptococcus pneumoniae; in test [1]; against Staphylococcus aureus) was > 64 µg/mL in each case. This compound also displayed a Ki in test [2] of 3.5 µM.

Take `CC(C)c1cn(C[C@H]2CN(c3ccc(C4=CCS(=O)(=O)CC4)c(F)c3)C(=O)O2)nn1`: the results for the MIC (in the test on Streptococcus pneumoniae; in test [1]; with Staphylococcus aureus) were 4 µg/mL (≈ 9.21 µM), 32 µg/mL (≈ 73.6 µM) and 8 µg/mL (≈ 18.4 µM), respectively. The compound further gave an inhibition constant Ki in test [2] of 102 µM.

On to `Cc1cnnn1C[C@H]1CN(c2ccc(C3=CCS(=O)(=O)CC3)c(F)c2)C(=O)O1`, for which the results for the MIC (in the test on Streptococcus pneumoniae; in test [1]; with Staphylococcus aureus) were 64 µg/mL (≈ 157 µM), > 64 µg/mL and > 64 µg/mL, respectively. Also, in test [2], the Ki came to 4.5 µM.

`C[Si](C)(C)C#Cc1cn(C[C@H]2CN(c3ccc(C4=CCS(=O)(=O)CC4)c(F)c3)C(=O)O2)nn1`: the MIC against Streptococcus pneumoniae was 1 µg/mL (≈ 2.05 µM); in test [1], > 64 µg/mL; in the test with Staphylococcus aureus it was > 64 µg/mL. In addition, the Ki in test [2] was > 200 µM.

With `O=C1O[C@@H](Cn2cc(CO)nn2)CN1c1ccc(C2=CCS(=O)(=O)CC2)c(F)c1`, the MIC in the test on Streptococcus pneumoniae was 2 µg/mL (≈ 4.73 µM); in test [1], 4 µg/mL (≈ 9.47 µM); with Staphylococcus aureus, 32 µg/mL (≈ 75.8 µM). In addition, affinity in test [2] was put at a Ki of 47 µM.

A word on the Ki: it is a measure of affinity in units of concentration, obtained from inhibition or displacement.

For the origin of these results see ChEMBL document CHEMBL1141178, “Identification of 4-substituted 1,2,3-triazoles as novel oxazolidinone antibacterial agents with reduced activity against monoamine oxidase A” (J Med Chem, 2005).
